Measured values reported in US9701670B2, “Pyrazolyl-ureas as kinase inhibitors” (RESPIVERT LIMITED, priority 2013, dated 2017).

Legend:
B-Raf = B-Raf (Homo sapiens (Human), UniProt P15056); assay: Enzyme binding assay (Kinomescan)
Method: The kinase enzyme binding activities of compounds disclosed herein were determined using a proprietary assay which measures active site-directed competition binding to an immobilized ligand (Fabian, M. A. et al., Nature Biotechnol., 2005, 23:329-336). These assays were conducted by DiscoverX (formerly Ambit; San Diego, Calif.). The percentage inhibition produced by incubation with a test compound is calculated relative to the non-inhibited control.

[1] = Plasma pharmacokinetics in beagle dogs; type: in vivo, male beagle dogs; conditions: Dog
Method: A study was conducted by Sai Life Sciences (Hinjewadi, Pune, India) to investigate the plasma pharmacokinetics of the compound of Example 77 in male beagle dogs following a single intravenous or oral administration.
A group of three male beagle dogs were administered orally with an aqueous suspension formulation (having 2% HPMC and 0.5% Tween 80) of the compound of Example 77, at a dose of 1 mg/kg. In addition, a group of three male beagle dogs were administered intravenously with a solution formulation (in 5% v/v DMSO, 7.5% w/v Solutol HS 15 and 87.5% saline (0.9% w/v NaCl)) of the compound of Example 77, at a dose of 0.05 mg/kg. Blood samples (approximately 1.5 mL) were collected from jugular vein such that the samples were obtained at pre-dose, 0.25, 0.5, 1, 2, 4, 6, 8, and 24 hr (p.o.) and pre-dose, 0.08, 0.25, 0.5, 1, 2, 4, 8, 12, 24 and 32 hr (i.v.) post dose. The blood samples were collected from a set of three dogs at each time point in labelled micro centrifuge tube containing K2EDTA as anticoagulant. Plasma samples were separated by centrifugation at 2500 g for 10 min of whole blood and stored below −70° C. until bioanalysis. All samples were processed for analysis by protein precipitation using acetonitrile and analyzed with LC-MS/MS method (LLOQ=0.50 ng/mL). Pharmacokinetic parameters were calculated using the non-compartmental analysis tool of Phoenix WinNonlin® (Version 6.3).

[2] = test system: Salmonella typhimurium, strains TA98 and TA100; assay: Mutagenicity assessment (bacterial reverse mutation screen); type: cell-based; conditions: TA98 and TA100, presence or absence of S-9 mix, up to 5000 μg/plate
Method: Studies were conducted by Sequani (Ledbury, Herefordshire, UK) to assess the compound of Example 77 in vitro for its ability to induce mutations in two histidine dependent auxotrophic mutants of Salmonella typhimurium, strains TA98 and TA100.
The mutation screen was conducted using the plate incorporation method and was performed in both the presence and absence of S-9 mix (a liver post-mitochondrial fraction derived from the livers of Aroclor 1254 treated rats). The bacteria were exposed to the compound of Example 77 dissolved in dimethylsulphoxide, which solvent was also used as the negative control. The dose levels used were 0.32, 1.6, 8, 40, 200, 1000 or 5000 μg/plate.

BDF1 mice = assay: (C) TNBS-induced colitis in mice; type: in vivo, mouse; set-up: TNBS Ulcer grade / TNBS LP inflammation: scale not given here; conditions: 2 days; for TNBS LP inflammation / TNBS Ulcer grade: mice
Method: Non-fasted, 10-12 week old, male BDF1 mice are dosed by oral gavage twice daily with either vehicle (5 mL/kg), reference item (Budesonide 2.5 mg/kg) or test compound (1, 5 or 50 mg/kg) one day before (Day −1) stimulation of the inflammatory response by treatment with 2,4,6-trinitrobenzenesulphonic acid (TNBS) (15 mg/mL in 50% ethanol/50% saline). On Day 0 of the study TNBS (200 μL) is administered intra-colonically via a plastic catheter followed by BID dosing of the vehicle, reference or test compound for 2 or 4 days. During the study animals are weighed every day and stool observations are made and recorded as a score, based on stool consistency. At the time of sacrifice on Day 2 (or Day 4) the large intestine is removed and the length and weight recorded. Sections of the colon are taken for either MPO analysis to determine neutrophil infiltration or for histopathology involving scoring to determine disease severity.

[3] = target: p38 MAPKα isoform (MAPK14) (Homo sapiens (Human), UniProt Q16539); assay: p38 MAPKα enzyme inhibition (FRET, Z-LYTE), Method 2; type: biochemical; conditions: Method 2, different laboratory (Table 4a2)
Sequence of p38 MAPKα isoform (MAPK14) (Q16539 whole entry, canonical isoform): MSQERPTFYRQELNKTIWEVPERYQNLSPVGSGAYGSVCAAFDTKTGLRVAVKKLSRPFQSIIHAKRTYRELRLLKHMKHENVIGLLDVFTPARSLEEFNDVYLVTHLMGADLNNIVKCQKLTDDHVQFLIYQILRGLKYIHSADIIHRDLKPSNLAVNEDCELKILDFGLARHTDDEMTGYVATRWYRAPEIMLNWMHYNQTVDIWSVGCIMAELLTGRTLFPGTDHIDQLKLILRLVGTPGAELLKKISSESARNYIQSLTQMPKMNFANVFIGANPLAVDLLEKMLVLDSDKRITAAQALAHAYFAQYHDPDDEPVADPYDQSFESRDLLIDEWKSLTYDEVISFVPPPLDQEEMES

[4] = test system: Intestinal mucosa biopsies from the inflamed regions of the colon of IBD patients; assay: (h) Human biopsy assay (cytokine release); type: cell-based
Method: Intestinal mucosa biopsies are obtained from the inflamed regions of the colon of IBD patients. The biopsy material is cut into small pieces (2-3 mm) and placed on steel grids in an organ culture chamber at 37° C. in a 5% CO2/95% O2 atmosphere in serum-free media. DMSO control or test compounds at the desired concentration are added to the tissue and incubated for 24 hr in the organ culture chamber. The supernatant is harvested for determination of IL-6, IL-8, […] and TNFα levels by R&D ELISA.

[5] = male, beagle, plasma, intravenous 0.05 mg/kg

Sequence of B-Raf (P15056 whole entry): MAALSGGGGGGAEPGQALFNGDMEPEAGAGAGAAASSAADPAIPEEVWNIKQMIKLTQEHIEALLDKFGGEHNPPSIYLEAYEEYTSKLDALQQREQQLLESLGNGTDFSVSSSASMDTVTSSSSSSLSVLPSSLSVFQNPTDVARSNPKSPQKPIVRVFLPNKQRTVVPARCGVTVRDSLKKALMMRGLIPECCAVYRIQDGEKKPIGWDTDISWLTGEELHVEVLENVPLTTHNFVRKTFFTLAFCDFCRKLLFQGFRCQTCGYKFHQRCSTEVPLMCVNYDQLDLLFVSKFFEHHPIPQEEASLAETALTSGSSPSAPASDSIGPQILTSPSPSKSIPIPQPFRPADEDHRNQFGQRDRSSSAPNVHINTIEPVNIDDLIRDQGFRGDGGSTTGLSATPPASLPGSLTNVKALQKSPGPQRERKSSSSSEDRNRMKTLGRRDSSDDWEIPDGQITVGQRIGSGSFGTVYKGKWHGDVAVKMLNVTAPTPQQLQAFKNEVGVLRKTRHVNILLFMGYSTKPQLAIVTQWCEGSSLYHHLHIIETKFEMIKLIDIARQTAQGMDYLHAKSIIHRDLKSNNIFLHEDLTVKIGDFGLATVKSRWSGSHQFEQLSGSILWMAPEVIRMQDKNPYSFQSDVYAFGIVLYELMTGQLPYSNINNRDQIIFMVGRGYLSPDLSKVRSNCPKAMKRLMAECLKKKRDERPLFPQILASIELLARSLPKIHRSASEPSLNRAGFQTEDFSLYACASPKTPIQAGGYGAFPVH

## C#Cc1cc(Nc2nccc(Oc3ccc(NC(=O)Nc4cc(C(C)(C)C)nn4-c4ccc(OC)cc4)c4ccccc34)n2)cc(C(=O)NCCN2CCOCC2)c1 [Example 77, 3-((4-((4-(3-(3-(tert-Butyl)-1-(4-methoxyphenyl)-1H-pyrazol-5-yl)ureido)-naphthalen-1-yl)oxy)pyrimidin-2-yl)amino)-5-ethynyl-N-(2-morpholinoethyl)benzamide]
B-Raf
  effect on the binding of the kinase B-Raf to its standard ligand: did not have any effect
[1]; 1 mg/kg p.o.
  plasma exposure after oral administration: no plasma exposure at all was observed
[1]; 1 mg/kg p.o., Plasma
  Fpo: 0%
[1]; [5]
  AUC(0-inf): 37 ng·h/mL
  AUC(0-t): 33.6 ng·h/mL
  C0: 283 ng/mL
  Vd: 1.8 L/kg
  clearance: 25.4 mL/min/kg
  half-life: 150 min
[2]
  ability to induce mutations (revertant colonies): no dose-related or statistically significant increases in revertant colonies
BDF1 mice; TNBS-induced colitis, dosed orally at 5 mg/kg
  histopathology analysis, in vivo model of colonic inflammation: significant activity
BDF1 mice; 1 mg/kg oral BID
  TNBS LP inflammation: 2.4 ± 0.3
  TNBS Ulcer grade: 3.1 ± 0.5
BDF1 mice; 5 mg/kg oral BID
  TNBS LP inflammation: 2.1 ± 0.3
  TNBS Ulcer grade: 2.4 ± 0.5
[3]
  IC50: 22 nM
[4]; 1 μg/mL, DMSO control 100%
  Cytokine release from biopsies of UC patients IL-1b release: 26 ± 16%
  Cytokine release from biopsies of UC patients IL-6 release: 67 ± 128%
  Cytokine release from biopsies of UC patients IL-8 release: 36 ± 117%
[4]; added to biopsies in vitro
  cytokine release from biopsies from ulcerative colitis (UC) patients: markedly reduced IL-1b, IL-6 and IL-8 release
